Experimental data from patent US10633389B2, “CARM1 inhibitors and uses thereof” (Epizyme, Inc., priority 2013, dated 2020).

System: asymmetric di-methyl PABP1 in RKO cells
Assay: RKO methylation assay, In Cell Western (ICW) for asymmetric di-methyl PABP1
Type: cell-based
Settings: Cellular potencies, ICW PABP1me2a
Summary of the method: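 In-cell Western on fixed RKO cells after 48 h compound exposure: anti-asymmetric di-methyl PABP1 signal at 800 nm over DRAQ5 DNA signal at 700 nm. Percent inhibition set between DMSO wells and wells with 20 μM reference compound; IC50 curves fitted in triplicate.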

Row | SMILES | IC50 [µM]
1 | CNC[C@@H](O)COc1ccc(Cl)c(-c2nc(-c3c(C)noc3C)c(C)c(N3Cc4c(C)nn(C)c4C3)n2)c1 [Example 237-3] | < 5

Same assay, conditions: Homo sapiens, RKO, Cellular potencies, ICW PABP1me2a

Row | SMILES | IC50 [µM]
2 | CNC[C@@H](O)COc1ccc(Cl)c(-c2nc(N[C@H]3CC[C@@H](OC)C3)c(C)c(-c3c(C)noc3C)n2)c1 [Example 212-3] | < 5
3 | CNC[C@@H](O)COc1ccc(Cl)c(-c2nc(-c3c(C)noc3C)c(C)c(N(C)[C@H]3CC[C@@H](OC)C3)n2)c1 [Example 213-3] | < 5
4 | CNC[C@@H](O)COc1ccc(Cl)c(-c2nc(-c3c(C)noc3C)c(Cl)c(N3Cc4ccncc4C3)n2)c1 [Example 214-3] | < 5
5 | CNCC(O)COc1cccc(-c2nc(Nc3nncs3)c(C)c(-c3c(C)noc3C)n2)c1 (centres unmarked) [Example 215-1a] | < 5
6 | CNC[C@@H](O)COc1ccc(Cl)c(-c2nc(NC[C@H]3CCCO3)c(Cl)c(-c3c(C)noc3C)n2)c1 [Example 215-3] | < 5
7 | CNCC(O)COc1cccc(-c2nc(NC3CCCN(C(=O)N(C)C)C3)c(C)c(-c3c(C)noc3C)n2)c1 (centres unmarked) [Example 216-1a] | < 5
8 | CNC[C@@H](O)COc1ccc(Cl)c(-c2nc(N[C@H]3C[C@@H](OC)C3)c(Cl)c(-c3c(C)noc3C)n2)c1 [Example 216-3] | < 5
9 | CNCC(O)COc1cccc(-c2nc(Nc3nnc(C4CC4)s3)c(C)c(-c3c(C)noc3C)n2)c1 (centres unmarked) [Example 217-1a] | < 5
10 | CNC[C@@H](O)COc1ccc(Cl)c(-c2nc(N[C@H]3C[C@H](OC)C3)c(Cl)c(-c3c(C)noc3C)n2)c1 [Example 217-3] | < 5
11 | CNCC(O)COc1cccc(-c2nc(N[C@H]3CCC[C@H]3O)c(C)c(-c3c(C)noc3C)n2)c1 (some centres unmarked) [Example 218-1a] | < 5
12 | CNCC(O)COc1ccc(Cl)c(-c2nc(NC3CC4(CC4)C3)c(C)c(-c3c(C)noc3C)n2)c1 (centres unmarked) [Example 218-3] | < 5
13 | CNCC(O)COc1cccc(-c2nc(NC3CCC[C@H]3O)c(C)c(-c3c(C)noc3C)n2)c1 (some centres unmarked) [Example 219-1a] | < 5
14 | CNC[C@@H](O)COc1ccc(Cl)c(-c2nc(NC3CC(COC)C3)c(C)c(-c3c(C)noc3C)n2)c1 (some centres unmarked) [Example 219-3] | < 5
15 | CNCC(O)COc1cccc(-c2nc(N[C@@H]3CCOC[C@@H]3OC)c(C)c(-c3c(C)noc3C)n2)c1 (some centres unmarked) [Example 220-1a] | < 5
16 | CNC[C@@H](O)COc1ccc(Cl)c(-c2nc(-c3c(C)noc3C)c(C)c(N(C)C3CC(COC)C3)n2)c1 (some centres unmarked) [Example 220-3] | < 5
17 | CNCC(O)COc1cccc(-c2nc(N[C@H]3C[C@H](C(=O)OC)C3)c(C)c(-c3c(C)noc3C)n2)c1 (some centres unmarked) [Example 221-1a] | < 5
18 | CCOC(=O)N1CCC[C@H]1CCOc1nc(-c2cc(OC[C@H](O)CNC)ccc2Cl)nc(-c2c(C)noc2C)c1C [Example 221-3] | < 5
19 | CCO[C@H]1CCC[C@@H]1Nc1nc(-c2cc(OC[C@H](O)CNC)ccc2Cl)nc(-c2c(C)noc2C)c1C [Example 222-3] | < 5
20 | CNC[C@@H](O)COc1ccc(F)c(-c2nc(-c3c(C)noc3C)c(C)c(N3Cc4cnn(C)c4C3)n2)c1 [Example 223-3] | < 5
21 | CNCC(O)COc1cccc(-c2nc(N[C@@H]3CCNC[C@@H]3F)c(C)c(-c3c(C)noc3C)n2)c1 (some centres unmarked) [Example 224-1a] | < 5
22 | CNC[C@@H](O)COc1ccc(Cl)c(-c2nc(-c3c(C)noc3C)c(C)c(N3Cc4[nH]nc(C)c4C3)n2)c1 [Example 224-3] | < 5
23 | CNCC(O)COc1cccc(-c2nc(N[C@@H]3CCN(C(=O)OC)C[C@@H]3F)c(C)c(-c3c(C)noc3C)n2)c1 (some centres unmarked) [Example 225-1a] | < 5

Row | SMILES | IC50 [µM]
24 | CNC[C@@H](O)COc1ccc(Cl)c(-c2nc(-c3c(C)noc3C)c(Cl)c(N3Cc4nccnc4C3)n2)c1 [Example 225-3] | < 5
25 | CCOC(=O)N1CC[C@@H](Nc2nc(-c3cccc(OCC(O)CNC)c3)nc(-c3c(C)noc3C)c2C)[C@@H](F)C1 (some centres unmarked) [Example 226-1a] | < 5
26 | CNC[C@@H](O)COc1ccc(F)c(-c2nc(-c3c(C)noc3C)c(C)c(N3Cc4nccnc4C3)n2)c1 [Example 226-3] | < 5
27 | CNCC(O)COc1cccc(-c2nc(N[C@@H]3CCN(C(=O)OC(C)(C)C)C[C@@H]3F)c(C)c(-c3c(C)noc3C)n2)c1 (some centres unmarked) [Example 227-1a] | < 5
28 | CNC[C@@H](O)COc1ccc(F)c(-c2nc(-c3c(C)noc3C)c(C)c(N3CC4(CCOCC4)C3)n2)c1 [Example 227-3] | < 5
29 | CNCC(O)COc1cccc(-c2nc(N[C@@H]3CCN(C(=O)OC)C[C@H]3F)c(C)c(-c3c(C)noc3C)n2)c1 (some centres unmarked) [Example 228-1a] | < 5
30 | CNC[C@@H](O)COc1ccc(Cl)c(-c2nc(NC[C@@H]3CCOC3)c(C)c(-c3c(C)noc3C)n2)c1 [Example 228-3] | < 5
31 | CCOC(=O)N1CC[C@@H](Nc2nc(-c3cccc(OCC(O)CNC)c3)nc(-c3c(C)noc3C)c2C)[C@H](F)C1 (some centres unmarked) [Example 229-1a] | < 5
32 | CNC[C@@H](O)COc1ccc(Cl)c(-c2nc(-c3c(C)noc3C)c(Cl)c(N3CC4(CCOCC4)C3)n2)c1 [Example 229-3] | < 5
33 | CCS(=O)(=O)N1CCOC[C@@H]1CNc1nc(-c2cccc(OCC(O)CNC)c2)nc(-c2c(C)noc2C)c1C (some centres unmarked) [Example 230-1a] | < 5
34 | CNC[C@@H](O)COc1ccc(Cl)c(-c2nc(NC3CC(C)C3)c(C)c(-c3c(C)noc3C)n2)c1 (some centres unmarked) [Example 230-3] | < 5
35 | CNCC(O)COc1cccc(-c2nc(N[C@H]3C[C@H](C(C)(C)O)C3)c(C)c(-c3c(C)noc3C)n2)c1 (some centres unmarked) [Example 231-1a] | < 5
36 | CNC[C@@H](O)COc1ccc(Cl)c(-c2nc(-c3c(C)noc3C)c(C)c(N3Cc4cn[nH]c4C3)n2)c1 [Example 231-3] | < 5
37 | CNCC(O)COc1cccc(-c2nc(N[C@H]3C[C@@H](C(C)(C)O)C3)c(C)c(-c3c(C)noc3C)n2)c1 (some centres unmarked) [Example 232-1a] | < 5
38 | CNC[C@@H](O)COc1ccc(Cl)c(-c2nc(-c3c(C)noc3C)c(C)c(N3Cc4cc(OC)cnc4C3)n2)c1 [Example 232-3] | < 5
39 | CNCC(O)COc1cccc(-c2nc(Nc3cc(C)on3)c(C)c(-c3c(C)noc3C)n2)c1 (centres unmarked) [Example 233-1a] | 10 to 20
40 | CNC[C@@H](O)COc1ccc(Cl)c(-c2nc(NC[C@H]3CCOC3)c(C)c(-c3c(C)noc3C)n2)c1 [Example 233-3] | < 5
41 | CNCC(O)COc1cccc(-c2nc(N[C@H]3CC[C@H](OC)C3)c(C)c(-c3c(C)noc3C)n2)c1 (some centres unmarked) [Example 234-1a] | < 5
42 | CNC[C@@H](O)COc1ccc(Cl)c(-c2nc(-c3c(C)noc3C)c(C)c(N3CCC4(CC4)C3)n2)c1 [Example 234-3] | < 5
43 | CNCC(O)COc1cccc(-c2nc(-c3c(C)noc3C)c(C)c(N3CCN(Cc4ccccc4)C(C(F)F)C3)n2)c1 (centres unmarked) [Example 235-1a] | < 5
44 | CNC[C@@H](O)COc1ccc(Cl)c(-c2nc(-c3c(C)noc3C)c(C)c(N3CC4CC4C3)n2)c1 (some centres unmarked) [Example 235-3] | < 5
45 | CNCC(O)COc1cccc(-c2nc(NC3CCOCC3)c(C)c(-c3c(C)noc3C3CC3)n2)c1 (centres unmarked) [Example 236-1a] | < 5

Row | SMILES | IC50 [µM]
46 | CNC[C@@H](O)COc1ccc(Cl)c(-c2nc(-c3c(C)noc3C)c(C)c(N3Cc4c(C)nn(C)c4C3)n2)c1 [Example 236-3] | < 5
47 | CNCC(O)COc1cccc(-c2nc(NC3CN(CC(F)F)C3)c(C)c(-c3c(C)noc3C)n2)c1 (centres unmarked) [Example 237-1a] | 10 to 20
48 | CCOC(=O)N1CC(Nc2nc(-c3cccc(OCC(O)CNC)c3)nc(-c3c(C)noc3C)c2C)C1 (centres unmarked) [Example 238-1a] | 10 to 20
49 | CNC[C@@H](O)COc1ccc(Cl)c(-c2nc(-c3c(C)noc3C)c(C)c(N3CCC3)n2)c1 [Example 238-3] | < 5
50 | CNCC(O)COc1cccc(-c2nc(NC3CCOC(C)C3)c(C)c(-c3c(C)noc3C)n2)c1 (centres unmarked) [Example 239-1a] | < 5
51 | CNC[C@@H](O)COc1ccc(Cl)c(-c2nc(-c3cnn(C)c3)c(C)c(-c3c(C)noc3C)n2)c1 [Example 239-3] | < 5
52 | CNCC(O)COc1cccc(-c2nc(NC3CCN(C4COC4)C3)c(C)c(-c3c(C)noc3C)n2)c1 (centres unmarked) [Example 240-1a] | < 5
53 | CCO[C@@H]1CCC[C@H]1Nc1nc(-c2cc(OC[C@H](O)CNC)ccc2Cl)nc(-c2c(C)noc2C)c1C [Example 240-3] | < 5
54 | CNCC(O)COc1cccc(-c2nc(NC3CCCC3)c(C)c(-c3c(C)noc3C)n2)c1 (centres unmarked) [Example 241-1a] | < 5
55 | CCO[C@@H]1CCC[C@H]1N(CC)c1nc(-c2cc(OC[C@H](O)CNC)ccc2Cl)nc(-c2c(C)noc2C)c1C [Example 241-3] | < 5
56 | CNCC(O)COc1cccc(-c2nc(NC3C[C@H]4CC[C@@H](C3)N4C(=O)OC)c(C)c(-c3c(C)noc3C)n2)c1 (some centres unmarked) [Example 242-1a] | < 5
57 | CCO[C@H]1CCC[C@H]1Nc1nc(-c2cc(OC[C@H](O)CNC)ccc2Cl)nc(-c2c(C)noc2C)c1C [Example 242-3] | < 5
58 | CNCC(O)COc1cccc(-c2nc(NC3CCN(C(=O)C4CC4)C3)c(C)c(-c3c(C)noc3C)n2)c1 (centres unmarked) [Example 243-1a] | < 5
59 | CNC[C@@H](O)COc1ccc(Cl)c(-c2nc(-c3c(C)noc3C)c(Cl)c(N3Cc4nc(C)sc4C3)n2)c1 [Example 243-3] | < 5
60 | CNCC(O)COc1cccc(-c2nc(NC3CCN(C(=O)N(C)C)CC3)c(C)c(-c3c(C)noc3C)n2)c1 (centres unmarked) [Example 244-1a] | < 5
61 | CNC[C@@H](O)COc1ccc(F)c(-c2nc(-c3c(C)noc3C)c(C)c(N3Cc4cc(OC)cnc4C3)n2)c1 [Example 244-3] | < 5
62 | CNCC(O)COc1cccc(-c2nc(NC3CCN(C(=O)C4CC4)CC3)c(C)c(-c3c(C)noc3C)n2)c1 (centres unmarked) [Example 245-1a] | < 5
63 | CNC[C@@H](O)COc1ccc(Cl)c(-c2nc(-c3c(C)noc3C)c(C)c(N3Cc4cnc(C)nc4C3)n2)c1 [Example 245-3] | < 5
64 | CNCC(O)COc1cccc(-c2nc(NC3CCCN(C4COC4)C3)c(C)c(-c3c(C)noc3C)n2)c1 (centres unmarked) [Example 246-1a] | 5 to 10
65 | CNC[C@@H](O)COc1ccc(Cl)c(-c2nc(-c3c(C)noc3C)c(C)c(N3CC4(CCC4)C3)n2)c1 [Example 246-3] | < 5
